# Assay results from patent US9238039B2, “Pyrazolo[1,5-A]pyrimidines for antiviral treatment” (Gilead Sciences, Inc., priority 2010, dated 2016).
# Tested on: RSV strain A2
# Assay: RSV antiviral cytoprotection assay in Hep2 cells (96-well and 384-well format, Cell TiterGlo read-out)
# Type: cell-based, Respiratory Syncytial Virus (RSV)
# Conditions: human respiratory syncytial virus, HEp-2, 0.5 uM; RSV-induced cytopathic effect in Hep2 cells; calculated from fitted dose response curve, normalized to 0% and 100%
row,SMILES,inhibition at 0.5 µM [%]
1,CS(=O)(=O)Nc1ccc(Cl)cc1C(=O)N1CCCC[C@H]1c1cc2nc(N3CCC3)cc(N3CCCNCC3)n2n1 [Compound 156],100
2,Cc1cccc(C(=O)N2CCCC[C@H]2c2cc3nc(N4CC[C@H](N)C4)c(C)cn3n2)c1 [Compound 157],100
3,Cc1ccccc1C(=O)N1CCCC[C@H]1c1cc2nc(N3CC[C@H](N)C3)c(C)cn2n1 [Compound 158],100
4,CS(=O)(=O)Nc1ccc(Cl)cc1C(=O)N1CCCC[C@H]1c1cc2nc(N3CCC3)cc(N3CCNC(C(F)(F)F)C3)n2n1 (stereo partly drawn) [Compound 159],100
5,Cc1cc(C)cc(C(=O)N2CCCC[C@H]2c2cc3nc(N4CC[C@H](N)C4)c(C)cn3n2)c1 [Compound 160],100
6,Cc1ccc(C)c(C(=O)N2CCCC[C@H]2c2cc3nc(N4CC[C@H](N)C4)c(C)cn3n2)c1 [Compound 161],100
7,CS(=O)(=O)Nc1ccc(Cl)cc1C(=O)N1CCCC[C@H]1c1cc2nc(N3CCC3)cc(N3CCN[C@@H](CF)C3)n2n1 [Compound 162],100
8,C[C@@H]1CN(c2cc(N3CCC3)nc3cc([C@@H]4CCCCN4C(=O)c4cc(Cl)ccc4NS(C)(=O)=O)nn23)C[C@H](C)N1 [Compound 163],100
9,CS(=O)(=O)Nc1ccc(Cl)cc1C(=O)N1CCCC[C@H]1c1cc2nc(N3CCC3)cc(N3CC(N)C(C(=O)N4CCC4)C3)n2n1 (stereo partly drawn) [Compound 164],100
10,CN1CCN(c2cc(N3CCC3)nc3cc([C@@H]4CCCCN4C(=O)c4cc(Cl)ccc4NS(C)(=O)=O)nn23)CC1 [Compound 165],100
11,CS(=O)(=O)Nc1ccc(Cl)cc1C(=O)N1CCCC[C@H]1c1cc2nc(N3CCC3)cc(N3CCN(CCF)CC3)n2n1 [Compound 166],100
12,COC1CN(c2nc3cc([C@@H]4CCCCN4C(=O)c4cc(Cl)ccc4NS(C)(=O)=O)nn3cc2C)CC1N (stereo partly drawn) [Compound 167],100
13,Cc1cn2nc([C@@H]3CCCCN3C(=O)c3cc(Br)ccc3NS(C)(=O)=O)cc2nc1N1CC(O)C1 [Compound 168],100
14,CC(=O)Nc1ccc(C)cc1C(=O)N1CCCC[C@H]1c1cc2nc(N3CC[C@H](N)C3)c(C)cn2n1 [Compound 169],100
15,Cc1cn2nc([C@@H]3CCCCN3C(=O)c3cc(Cl)ccc3NS(C)(=O)=O)cc2nc1N1CC(=O)C1 [Compound 170],100
16,Cc1cn2nc([C@@H]3CCCCN3C(=O)c3cc(Cl)ccc3NS(C)(=O)=O)cc2nc1N1CC(OC(=O)[C@@H]2CCCN2)C1 [Compound 171],100
17,Cc1cn2nc([C@@H]3CCCCN3C(=O)c3cc(Cl)ccc3NS(C)(=O)=O)cc2nc1N1CC(OC(=O)CN)C1 [Compound 172],100
18,CN1CCCN(c2cc(N3CCC3)nc3cc([C@@H]4CCCCN4C(=O)c4cc(Cl)ccc4NS(C)(=O)=O)nn23)CC1 [Compound 173],100
19,Cc1cn2nc(C3CCCCCN3C(=O)c3cc(Cl)ccc3NS(C)(=O)=O)cc2nc1N1CC(O)C1 (stereo not drawn) [Compound 174],100
20,CN(C)CCN(C)c1cc(N2CCC2)nc2cc([C@@H]3CCCCN3C(=O)c3cc(Cl)ccc3NS(C)(=O)=O)nn12 [Compound 175],100
21,Cc1cn2nc([C@@H]3Cc4ccccc4CN3C(=O)c3cc(Cl)ccc3NS(C)(=O)=O)cc2nc1N1CC[C@H](N)C1 [Compound 176],100
22,CS(=O)(=O)Nc1ccc(Cl)cc1C(=O)N1CCCCCC1c1cc2nc(N3CCC3)cc(N3CCOCC3)n2n1 (stereo not drawn) [Compound 177],99
23,CS(=O)(=O)Nc1ccc(Cl)cc1C(=O)N1CCCCCC1c1cc2nc(N3CC(N)C3)cc(N3CCOCC3)n2n1 (stereo not drawn) [Compound 178],100
24,Cc1cn2nc([C@@H]3CCCCN3C(=O)c3cc(Cl)ccc3NS(C)(=O)=O)cc2nc1N1CC(N)C(C#N)C1 (stereo partly drawn) [Compound 186],100
25,Cc1cn2nc([C@@H]3CCCCN3C(=O)c3cc(Cl)ccc3NS(C)(=O)=O)cc2nc1N1CC(OC(=O)[C@@H](N)C(C)C)C1 [Compound 187],100
26,Cc1ccc(NS(C)(=O)=O)c(C(=O)N2CCCC[C@H]2c2cc3nc(N4CC[C@@H](C#N)C4)c(C)cn3n2)c1 [Compound 188],100
27,Cc1ccc(NS(C)(=O)=O)c(C(=O)N2CCCC[C@H]2c2cc3nc(N4CCC4)c(C)cn3n2)c1 [Compound 189],100

# Same assay, conditions: human respiratory syncytial virus, HEp-2, RSV-induced cytopathic effects, Hep2 cells; class symbols
row,SMILES,EC50 [nM]
1,CS(=O)(=O)Nc1ccc(Cl)cc1C(=O)N1CCCC[C@H]1c1cc2nc(N3CCC3)cc(N3CCCNCC3)n2n1 [Compound 156],0.1 to 100
2,Cc1cccc(C(=O)N2CCCC[C@H]2c2cc3nc(N4CC[C@H](N)C4)c(C)cn3n2)c1 [Compound 157],0.1 to 100
3,Cc1ccccc1C(=O)N1CCCC[C@H]1c1cc2nc(N3CC[C@H](N)C3)c(C)cn2n1 [Compound 158],0.1 to 100
4,CS(=O)(=O)Nc1ccc(Cl)cc1C(=O)N1CCCC[C@H]1c1cc2nc(N3CCC3)cc(N3CCNC(C(F)(F)F)C3)n2n1 (stereo partly drawn) [Compound 159],0.1 to 100
5,Cc1cc(C)cc(C(=O)N2CCCC[C@H]2c2cc3nc(N4CC[C@H](N)C4)c(C)cn3n2)c1 [Compound 160],0.1 to 100
6,Cc1ccc(C)c(C(=O)N2CCCC[C@H]2c2cc3nc(N4CC[C@H](N)C4)c(C)cn3n2)c1 [Compound 161],0.1 to 100
7,CS(=O)(=O)Nc1ccc(Cl)cc1C(=O)N1CCCC[C@H]1c1cc2nc(N3CCC3)cc(N3CCN[C@@H](CF)C3)n2n1 [Compound 162],0.1 to 100
8,C[C@@H]1CN(c2cc(N3CCC3)nc3cc([C@@H]4CCCCN4C(=O)c4cc(Cl)ccc4NS(C)(=O)=O)nn23)C[C@H](C)N1 [Compound 163],0.1 to 100
9,CS(=O)(=O)Nc1ccc(Cl)cc1C(=O)N1CCCC[C@H]1c1cc2nc(N3CCC3)cc(N3CC(N)C(C(=O)N4CCC4)C3)n2n1 (stereo partly drawn) [Compound 164],0.1 to 100
10,CN1CCN(c2cc(N3CCC3)nc3cc([C@@H]4CCCCN4C(=O)c4cc(Cl)ccc4NS(C)(=O)=O)nn23)CC1 [Compound 165],0.1 to 100
11,CS(=O)(=O)Nc1ccc(Cl)cc1C(=O)N1CCCC[C@H]1c1cc2nc(N3CCC3)cc(N3CCN(CCF)CC3)n2n1 [Compound 166],0.1 to 100
12,COC1CN(c2nc3cc([C@@H]4CCCCN4C(=O)c4cc(Cl)ccc4NS(C)(=O)=O)nn3cc2C)CC1N (stereo partly drawn) [Compound 167],0.1 to 100
13,Cc1cn2nc([C@@H]3CCCCN3C(=O)c3cc(Br)ccc3NS(C)(=O)=O)cc2nc1N1CC(O)C1 [Compound 168],0.1 to 100
14,CC(=O)Nc1ccc(C)cc1C(=O)N1CCCC[C@H]1c1cc2nc(N3CC[C@H](N)C3)c(C)cn2n1 [Compound 169],0.1 to 100
15,Cc1cn2nc([C@@H]3CCCCN3C(=O)c3cc(Cl)ccc3NS(C)(=O)=O)cc2nc1N1CC(=O)C1 [Compound 170],0.1 to 100
16,Cc1cn2nc([C@@H]3CCCCN3C(=O)c3cc(Cl)ccc3NS(C)(=O)=O)cc2nc1N1CC(OC(=O)[C@@H]2CCCN2)C1 [Compound 171],0.1 to 100
17,Cc1cn2nc([C@@H]3CCCCN3C(=O)c3cc(Cl)ccc3NS(C)(=O)=O)cc2nc1N1CC(OC(=O)CN)C1 [Compound 172],0.1 to 100
18,CN1CCCN(c2cc(N3CCC3)nc3cc([C@@H]4CCCCN4C(=O)c4cc(Cl)ccc4NS(C)(=O)=O)nn23)CC1 [Compound 173],0.1 to 100
19,Cc1cn2nc(C3CCCCCN3C(=O)c3cc(Cl)ccc3NS(C)(=O)=O)cc2nc1N1CC(O)C1 (stereo not drawn) [Compound 174],0.1 to 100
20,CN(C)CCN(C)c1cc(N2CCC2)nc2cc([C@@H]3CCCCN3C(=O)c3cc(Cl)ccc3NS(C)(=O)=O)nn12 [Compound 175],0.1 to 100
21,Cc1cn2nc([C@@H]3Cc4ccccc4CN3C(=O)c3cc(Cl)ccc3NS(C)(=O)=O)cc2nc1N1CC[C@H](N)C1 [Compound 176],0.1 to 100
22,CS(=O)(=O)Nc1ccc(Cl)cc1C(=O)N1CCCCCC1c1cc2nc(N3CCC3)cc(N3CCOCC3)n2n1 (stereo not drawn) [Compound 177],0.1 to 100
23,CS(=O)(=O)Nc1ccc(Cl)cc1C(=O)N1CCCCCC1c1cc2nc(N3CC(N)C3)cc(N3CCOCC3)n2n1 (stereo not drawn) [Compound 178],0.1 to 100
24,Cc1cn2nc([C@@H]3CCCCN3C(=O)c3cc(Cl)ccc3NS(C)(=O)=O)cc2nc1N1CC(N)C(C#N)C1 (stereo partly drawn) [Compound 186],0.1 to 100
25,Cc1cn2nc([C@@H]3CCCCN3C(=O)c3cc(Cl)ccc3NS(C)(=O)=O)cc2nc1N1CC(OC(=O)[C@@H](N)C(C)C)C1 [Compound 187],0.1 to 100
26,Cc1ccc(NS(C)(=O)=O)c(C(=O)N2CCCC[C@H]2c2cc3nc(N4CC[C@@H](C#N)C4)c(C)cn3n2)c1 [Compound 188],0.1 to 100
27,Cc1ccc(NS(C)(=O)=O)c(C(=O)N2CCCC[C@H]2c2cc3nc(N4CCC4)c(C)cn3n2)c1 [Compound 189],0.1 to 100
